Results from ChEMBL document CHEMBL4507261, “Data for DCP probe A-192621” (2021).

What was measured:
[1] = biological target: Serine/threonine-protein kinase BRSK1 (Homo sapiens) (UniProt Q8TDC3); conditions: Compound concentration 1000.0 nM
[2] = biological target: Atypical kinase COQ8B, mitochondrial (Homo sapiens) (UniProt Q96D53); conditions: Compound concentration 1000.0 nM
[3] = test system: Receptor-type tyrosine-protein kinase FLT3 (Homo sapiens), P36888 [D835V]; conditions: Compound concentration 1000.0 nM
[4] = biological target: D(2) dopamine receptor (Homo sapiens) (UniProt P14416); assay: D2S (h) Eurofins-Cerep binding assay; parameters: ligand concentration 0.3 nM; conditions: filed as antagonist, Compound concentration 10.0 uM
[5] = biological target: 5-hydroxytryptamine receptor 1A (Homo sapiens) (UniProt P08908); assay: 5-HT1A (h) Eurofins-Cerep binding assay; parameters: ligand concentration 0.5 nM; conditions: filed as agonist, Compound concentration 10.0 uM
5-hydroxytryptamine receptor 1A (Homo sapiens), sequence (P08908 whole entry): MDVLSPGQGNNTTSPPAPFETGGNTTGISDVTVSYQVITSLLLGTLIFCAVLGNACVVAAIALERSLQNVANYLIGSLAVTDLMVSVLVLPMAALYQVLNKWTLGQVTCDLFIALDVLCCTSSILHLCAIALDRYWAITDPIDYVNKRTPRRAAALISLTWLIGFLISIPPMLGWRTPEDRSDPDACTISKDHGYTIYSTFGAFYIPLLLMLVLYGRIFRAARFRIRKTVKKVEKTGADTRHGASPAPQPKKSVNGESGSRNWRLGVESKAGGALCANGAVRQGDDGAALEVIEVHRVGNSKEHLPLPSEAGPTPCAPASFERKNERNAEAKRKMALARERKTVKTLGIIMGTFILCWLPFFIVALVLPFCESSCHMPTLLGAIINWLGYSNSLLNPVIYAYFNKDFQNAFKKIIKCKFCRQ

[6] = biological target: Mitogen-activated protein kinase kinase kinase 5 (Homo sapiens) (UniProt Q99683); conditions: Compound concentration 1000.0 nM
[7] = biological target: Activin receptor type-1-like (Homo sapiens) (UniProt P37023); conditions: Compound concentration 1000.0 nM
Activin receptor type-1-like (Homo sapiens), sequence (P37023 whole entry): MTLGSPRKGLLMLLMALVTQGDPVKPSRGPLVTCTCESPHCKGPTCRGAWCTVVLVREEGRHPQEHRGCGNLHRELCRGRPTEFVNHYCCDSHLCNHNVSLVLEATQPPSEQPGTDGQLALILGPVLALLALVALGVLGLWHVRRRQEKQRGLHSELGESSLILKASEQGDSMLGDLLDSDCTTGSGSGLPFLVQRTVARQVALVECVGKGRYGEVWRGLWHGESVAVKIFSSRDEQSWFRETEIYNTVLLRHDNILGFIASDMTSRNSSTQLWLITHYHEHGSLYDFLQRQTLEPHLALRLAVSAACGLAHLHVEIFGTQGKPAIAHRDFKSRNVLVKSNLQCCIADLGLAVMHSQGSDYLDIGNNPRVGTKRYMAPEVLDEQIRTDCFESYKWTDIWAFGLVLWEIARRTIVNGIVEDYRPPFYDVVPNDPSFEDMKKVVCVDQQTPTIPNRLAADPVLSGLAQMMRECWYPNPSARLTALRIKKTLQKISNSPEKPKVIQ

[8] = biological target: Serine/threonine-protein kinase PknB (Mycobacterium tuberculosis) (UniProt P9WI81); conditions: Compound concentration 1000.0 nM
[9] = biological target: Adenosine receptor A1 (Homo sapiens) (UniProt P30542); assay: A1 (h) Eurofins-Cerep binding assay; parameters: ligand concentration 1 nM; conditions: filed as antagonist, Compound concentration 10.0 uM
[10] = biological target: Tyrosine-protein kinase BTK (Homo sapiens) (UniProt Q06187); conditions: Compound concentration 1000.0 nM
[11] = biological target: Citron Rho-interacting kinase (Homo sapiens) (UniProt O14578); conditions: Compound concentration 1000.0 nM
[12] = biological target: Tyrosine-protein kinase SYK (Homo sapiens) (UniProt P43405); conditions: Compound concentration 1000.0 nM
[13] = biological target: Calcium/calmodulin-dependent protein kinase type II subunit gamma (Homo sapiens) (UniProt Q13555); conditions: Compound concentration 1000.0 nM
[14] = biological target: Histamine H2 receptor (Homo sapiens) (UniProt P25021); assay: H2 (h) Eurofins-Cerep binding assay; parameters: ligand concentration 0.075 nM; conditions: filed as antagonist, Compound concentration 10.0 uM
[15] = biological target: T1, Alpha-2A adrenergic receptor (Homo sapiens) (UniProt P08913); assay: Alpha2A (h) Eurofins-Cerep binding assay; conditions: filed as antagonist, Compound concentration 10.0 uM
T1 sequence (whole entry): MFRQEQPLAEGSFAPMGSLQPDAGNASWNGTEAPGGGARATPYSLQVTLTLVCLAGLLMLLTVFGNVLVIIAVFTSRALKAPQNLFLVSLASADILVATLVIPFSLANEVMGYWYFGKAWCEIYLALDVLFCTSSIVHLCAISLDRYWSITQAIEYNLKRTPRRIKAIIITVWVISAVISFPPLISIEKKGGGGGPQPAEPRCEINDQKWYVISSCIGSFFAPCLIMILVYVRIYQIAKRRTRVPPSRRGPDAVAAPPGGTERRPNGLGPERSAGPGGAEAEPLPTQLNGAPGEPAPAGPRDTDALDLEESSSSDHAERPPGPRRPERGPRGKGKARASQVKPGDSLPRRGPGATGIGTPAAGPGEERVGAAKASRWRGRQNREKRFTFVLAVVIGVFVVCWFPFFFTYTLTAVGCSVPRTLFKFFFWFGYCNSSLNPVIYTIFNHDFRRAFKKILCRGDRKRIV

[16] = biological target: Sodium-dependent serotonin transporter (Homo sapiens) (UniProt P31645); assay: 5-HT transporter (h) Eurofins-Cerep binding assay; parameters: ligand concentration 2 nM; conditions: filed as antagonist, Compound concentration 10.0 uM
[17] = biological target: Neuropeptide Y receptor type 1 (Homo sapiens) (UniProt P25929); assay: Y1 (h) Eurofins-Cerep binding assay; parameters: ligand concentration 0.025 nM; conditions: filed as agonist, Compound concentration 10.0 uM
Neuropeptide Y receptor type 1 (Homo sapiens), sequence (P25929 whole entry): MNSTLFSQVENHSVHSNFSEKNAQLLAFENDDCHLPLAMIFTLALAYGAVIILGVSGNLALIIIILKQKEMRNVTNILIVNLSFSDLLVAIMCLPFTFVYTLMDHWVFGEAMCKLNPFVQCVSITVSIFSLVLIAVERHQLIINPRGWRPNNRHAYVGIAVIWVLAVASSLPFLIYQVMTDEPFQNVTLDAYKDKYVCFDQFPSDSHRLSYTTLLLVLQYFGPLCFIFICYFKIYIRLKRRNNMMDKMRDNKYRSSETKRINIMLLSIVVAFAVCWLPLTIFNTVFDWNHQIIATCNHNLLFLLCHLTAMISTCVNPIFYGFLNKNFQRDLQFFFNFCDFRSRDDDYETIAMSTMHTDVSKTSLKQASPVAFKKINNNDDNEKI

[18] = biological target: T2, 5-hydroxytryptamine receptor 2C (Homo sapiens) (UniProt P28335); assay: 5-HT2C (h) Eurofins-Cerep binding assay; parameters: ligand concentration 1 nM; conditions: filed as antagonist, Compound concentration 10.0 uM
T2 sequence (whole entry): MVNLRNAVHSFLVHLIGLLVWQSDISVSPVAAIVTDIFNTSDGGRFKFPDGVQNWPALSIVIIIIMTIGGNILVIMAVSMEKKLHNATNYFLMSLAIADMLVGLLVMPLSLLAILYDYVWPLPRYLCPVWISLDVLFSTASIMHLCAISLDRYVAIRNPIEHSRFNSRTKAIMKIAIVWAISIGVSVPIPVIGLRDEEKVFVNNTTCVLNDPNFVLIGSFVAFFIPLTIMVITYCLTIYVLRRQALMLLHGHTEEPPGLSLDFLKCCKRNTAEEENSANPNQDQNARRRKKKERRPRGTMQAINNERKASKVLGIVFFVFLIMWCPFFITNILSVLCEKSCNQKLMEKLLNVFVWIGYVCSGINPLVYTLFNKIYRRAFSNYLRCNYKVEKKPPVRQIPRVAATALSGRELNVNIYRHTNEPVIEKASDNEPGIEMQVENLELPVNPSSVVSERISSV

[19] = biological target: Mast/stem cell growth factor receptor Kit (Homo sapiens) (UniProt P10721); conditions: Compound concentration 1000.0 nM
[20] = biological target: Tyrosine-protein kinase receptor Tie-1 (Homo sapiens) (UniProt P35590); conditions: Compound concentration 1000.0 nM
Tyrosine-protein kinase receptor Tie-1 (Homo sapiens), sequence (P35590 whole entry): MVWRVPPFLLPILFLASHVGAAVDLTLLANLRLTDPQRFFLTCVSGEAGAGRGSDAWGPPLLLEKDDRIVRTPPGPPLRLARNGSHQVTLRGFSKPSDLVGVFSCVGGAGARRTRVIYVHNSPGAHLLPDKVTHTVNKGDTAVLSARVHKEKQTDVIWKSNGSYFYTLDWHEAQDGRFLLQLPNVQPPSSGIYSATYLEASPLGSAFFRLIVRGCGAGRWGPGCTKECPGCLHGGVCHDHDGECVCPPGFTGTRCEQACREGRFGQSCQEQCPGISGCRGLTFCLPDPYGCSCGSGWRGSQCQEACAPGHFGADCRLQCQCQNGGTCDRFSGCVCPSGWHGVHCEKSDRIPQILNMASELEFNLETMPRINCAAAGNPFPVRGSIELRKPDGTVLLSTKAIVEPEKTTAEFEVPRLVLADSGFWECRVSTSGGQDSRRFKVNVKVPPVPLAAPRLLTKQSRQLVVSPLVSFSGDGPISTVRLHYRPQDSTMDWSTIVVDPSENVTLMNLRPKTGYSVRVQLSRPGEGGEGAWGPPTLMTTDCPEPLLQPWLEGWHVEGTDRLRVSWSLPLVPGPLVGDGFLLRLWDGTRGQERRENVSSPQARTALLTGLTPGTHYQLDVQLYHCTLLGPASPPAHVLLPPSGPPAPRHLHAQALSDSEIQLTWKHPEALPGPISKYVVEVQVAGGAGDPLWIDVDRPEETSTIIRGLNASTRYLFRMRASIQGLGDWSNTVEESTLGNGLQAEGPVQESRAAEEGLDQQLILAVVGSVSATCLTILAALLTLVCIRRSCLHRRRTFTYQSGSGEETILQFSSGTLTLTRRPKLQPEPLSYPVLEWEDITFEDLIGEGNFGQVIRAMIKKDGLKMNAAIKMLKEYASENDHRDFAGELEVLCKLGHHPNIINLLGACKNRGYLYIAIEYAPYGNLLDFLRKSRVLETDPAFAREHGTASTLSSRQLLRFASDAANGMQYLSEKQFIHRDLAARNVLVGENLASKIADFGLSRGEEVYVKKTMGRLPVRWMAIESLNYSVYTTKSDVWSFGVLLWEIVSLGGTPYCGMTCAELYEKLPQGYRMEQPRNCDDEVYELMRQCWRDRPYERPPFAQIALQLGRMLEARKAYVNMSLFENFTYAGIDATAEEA

[21] = biological target: 5-hydroxytryptamine receptor 7 (Homo sapiens) (UniProt P34969); assay: 5-HT7 (h) Eurofins-Cerep binding assay; parameters: ligand concentration 4 nM; conditions: filed as agonist, Compound concentration 10.0 uM
5-hydroxytryptamine receptor 7 (Homo sapiens), sequence (P34969 whole entry): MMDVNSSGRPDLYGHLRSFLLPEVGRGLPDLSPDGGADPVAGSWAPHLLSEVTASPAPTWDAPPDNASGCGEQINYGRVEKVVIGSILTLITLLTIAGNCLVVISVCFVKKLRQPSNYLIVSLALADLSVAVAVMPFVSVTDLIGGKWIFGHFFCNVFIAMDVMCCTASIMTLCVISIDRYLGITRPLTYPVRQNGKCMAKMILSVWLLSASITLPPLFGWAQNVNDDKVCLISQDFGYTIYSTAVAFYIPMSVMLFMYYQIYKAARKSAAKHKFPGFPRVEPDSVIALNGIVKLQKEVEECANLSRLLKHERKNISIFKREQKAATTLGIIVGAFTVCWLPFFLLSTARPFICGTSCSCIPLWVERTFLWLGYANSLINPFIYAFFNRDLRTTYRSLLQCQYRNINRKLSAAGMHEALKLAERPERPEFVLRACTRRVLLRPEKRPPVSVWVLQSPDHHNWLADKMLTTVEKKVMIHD

[22] = biological target: Ribosomal protein S6 kinase alpha-3 (Homo sapiens) (UniProt P51812); conditions: Compound concentration 1000.0 nM
[23] = biological target: Dual specificity protein kinase CLK3 (Homo sapiens) (UniProt P49761); conditions: Compound concentration 1000.0 nM
[24] = biological target: Endothelin-1 receptor (Homo sapiens) (UniProt P25101); conditions: filed as agonist, Compound concentration 10.0 uM
[25] = biological target: Serine/threonine-protein kinase Nek3 (Homo sapiens) (UniProt P51956); conditions: Compound concentration 1000.0 nM
[26] = biological target: Androgen receptor (Homo sapiens) (UniProt P10275); assay: AR (h) Eurofins-Cerep binding assay; parameters: ligand concentration 1 nM; conditions: filed as agonist, Compound concentration 10.0 uM
[27] = test system: Phosphatidylinositol 4,5-bisphosphate 3-kinase catalytic subunit alpha isoform (Homo sapiens), P42336 [H1047L]; conditions: Compound concentration 1000.0 nM
[28] = test system: Mast/stem cell growth factor receptor Kit (Homo sapiens), P10721 [D816V]; conditions: Compound concentration 1000.0 nM
[29] = test system: Epidermal growth factor receptor (Homo sapiens), P00533 [L858R,T790M]; conditions: Compound concentration 1000.0 nM
[30] = biological target: Serine/threonine-protein kinase SIK2 (Homo sapiens) (UniProt Q9H0K1); conditions: Compound concentration 1000.0 nM
Serine/threonine-protein kinase SIK2 (Homo sapiens), sequence (Q9H0K1 whole entry, looked up): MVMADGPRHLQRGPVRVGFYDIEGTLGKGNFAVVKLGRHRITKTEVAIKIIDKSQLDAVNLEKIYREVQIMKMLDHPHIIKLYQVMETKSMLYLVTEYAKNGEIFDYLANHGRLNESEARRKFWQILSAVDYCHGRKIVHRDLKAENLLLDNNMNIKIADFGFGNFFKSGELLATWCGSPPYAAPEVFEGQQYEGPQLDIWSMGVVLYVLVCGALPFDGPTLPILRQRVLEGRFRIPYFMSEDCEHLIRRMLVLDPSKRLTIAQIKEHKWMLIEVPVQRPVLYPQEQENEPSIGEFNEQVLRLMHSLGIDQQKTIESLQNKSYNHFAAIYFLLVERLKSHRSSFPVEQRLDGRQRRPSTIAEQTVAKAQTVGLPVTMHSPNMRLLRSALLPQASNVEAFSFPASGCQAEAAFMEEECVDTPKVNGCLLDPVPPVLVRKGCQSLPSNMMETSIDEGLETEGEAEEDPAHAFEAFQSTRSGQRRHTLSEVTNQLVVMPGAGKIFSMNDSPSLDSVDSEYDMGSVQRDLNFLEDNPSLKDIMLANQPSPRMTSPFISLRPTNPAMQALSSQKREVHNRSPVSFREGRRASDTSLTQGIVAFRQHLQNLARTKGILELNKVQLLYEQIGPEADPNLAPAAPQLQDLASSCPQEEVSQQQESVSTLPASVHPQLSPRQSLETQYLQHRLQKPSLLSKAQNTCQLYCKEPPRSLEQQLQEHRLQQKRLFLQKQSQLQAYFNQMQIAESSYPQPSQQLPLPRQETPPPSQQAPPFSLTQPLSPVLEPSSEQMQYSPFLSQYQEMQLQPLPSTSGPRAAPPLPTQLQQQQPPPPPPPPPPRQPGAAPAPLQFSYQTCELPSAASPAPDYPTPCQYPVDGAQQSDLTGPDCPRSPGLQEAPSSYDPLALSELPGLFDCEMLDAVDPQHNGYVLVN

[31] = biological target: Calcium/calmodulin-dependent protein kinase type II subunit alpha (Homo sapiens) (UniProt Q9UQM7); conditions: Compound concentration 1000.0 nM
Calcium/calmodulin-dependent protein kinase type II subunit alpha (Homo sapiens), sequence (Q9UQM7 whole entry): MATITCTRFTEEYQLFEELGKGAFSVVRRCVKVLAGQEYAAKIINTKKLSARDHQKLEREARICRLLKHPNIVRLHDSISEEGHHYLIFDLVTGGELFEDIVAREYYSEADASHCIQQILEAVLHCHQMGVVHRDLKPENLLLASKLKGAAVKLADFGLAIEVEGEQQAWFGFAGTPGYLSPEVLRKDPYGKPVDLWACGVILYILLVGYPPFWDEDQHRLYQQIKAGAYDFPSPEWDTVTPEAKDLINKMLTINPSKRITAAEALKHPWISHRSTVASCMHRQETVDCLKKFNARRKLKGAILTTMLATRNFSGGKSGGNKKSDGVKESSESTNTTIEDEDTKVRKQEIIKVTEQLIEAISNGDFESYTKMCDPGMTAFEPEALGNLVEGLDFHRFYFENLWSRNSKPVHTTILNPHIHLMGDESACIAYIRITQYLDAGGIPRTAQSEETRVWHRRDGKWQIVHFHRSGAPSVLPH

[32] = biological target: Cyclin-dependent kinase 4 (Homo sapiens) (UniProt P11802); conditions: Compound concentration 1000.0 nM
[33] = biological target: Phosphorylase b kinase regulatory subunit alpha, liver isoform (Homo sapiens) (UniProt P46019); conditions: Compound concentration 1000.0 nM

Atypical kinase COQ8B, mitochondrial (Homo sapiens), sequence (Q96D53 whole entry): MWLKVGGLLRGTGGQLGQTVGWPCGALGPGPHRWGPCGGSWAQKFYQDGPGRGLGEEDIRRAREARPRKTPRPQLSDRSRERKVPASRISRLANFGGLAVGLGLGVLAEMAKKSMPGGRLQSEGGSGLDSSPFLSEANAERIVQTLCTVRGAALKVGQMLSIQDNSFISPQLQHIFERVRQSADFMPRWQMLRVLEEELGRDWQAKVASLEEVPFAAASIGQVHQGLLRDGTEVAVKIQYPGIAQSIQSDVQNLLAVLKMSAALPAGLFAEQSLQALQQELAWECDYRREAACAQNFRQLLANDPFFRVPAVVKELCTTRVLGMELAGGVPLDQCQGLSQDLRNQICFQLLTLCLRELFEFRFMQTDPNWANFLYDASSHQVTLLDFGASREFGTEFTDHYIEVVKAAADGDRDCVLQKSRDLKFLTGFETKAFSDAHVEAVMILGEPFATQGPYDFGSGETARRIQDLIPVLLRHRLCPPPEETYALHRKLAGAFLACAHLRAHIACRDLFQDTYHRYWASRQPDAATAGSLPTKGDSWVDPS

SMILES	residual activity [1] [%]	residual activity [2] [%]	residual activity [3] [%]	% Inhibition of Control Specific Binding (Mean n=2) [4] [%]	% Inhibition of Control Specific Binding (Mean n=2) [5] [%]	residual activity [6] [%]	residual activity [7] [%]	residual activity [8] [%]	% Inhibition of Control Specific Binding (Mean n=2) [9] [%]	residual activity [10] [%]	residual activity [11] [%]	residual activity [12] [%]	residual activity [13] [%]	% Inhibition of Control Specific Binding (Mean n=2) [14] [%]	% Inhibition of Control Specific Binding (Mean n=2) [16] [%]	% Inhibition of Control Specific Binding (Mean n=2) [17] [%]	residual activity [19] [%]	residual activity [20] [%]	% Inhibition of Control Specific Binding (Mean n=2) [21] [%]	residual activity [22] [%]	also measured
CCCOc1ccc([C@H]2[C@H](C(=O)O)[C@@H](c3ccc4c(c3)OCO4)CN2CC(=O)Nc2c(CC)cccc2CC)cc1 [A-192621]	100	90	88	2.6	-5.9	91	99	78	8.3	55	83	100	95	-35.3	-7.7	-9.3	85	94	1.9	73	% Inhibition of Control Specific Binding [15]: -2.4%; % Inhibition of Control Specific Binding (Mean n=2) [18]: 1.2%; residual activity [23]: 97%; % Inhibition of Control Specific Binding (Mean n=2) [24]: 97.1%; residual activity [25]: 69%; % Inhibition of Control Specific Binding (Mean n=2) [26]: -11.6%; residual activity [27]: 85%; residual activity [28]: 92%; residual activity [29]: 75%; residual activity [30]: 89%; residual activity [31]: 90%; residual activity [32]: 100%; residual activity [33]: 86%
CCCOc1ccc([C@@H]2[C@@H](C(=O)O)[C@H](c3ccc4c(c3)OCO4)CN2CC(=O)Nc2c(CC)cccc2CC)cc1 [A-1806262]	100	89	62	1.8	-3.8	97	100	98	4.2	72	98	100	88	-18.1	5.2	-5.6	90	96	0.4	76	% Inhibition of Control Specific Binding (Mean n=2) [15]: -7.1%; % Inhibition of Control Specific Binding [18]: 0%; residual activity [23]: 93%; % Inhibition of Control Specific Binding (Mean n=2) [24]: 63.7%; residual activity [25]: 100%; % Inhibition of Control Specific Binding (Mean n=2) [26]: -11.6%; residual activity [27]: 83%; residual activity [28]: 99%; residual activity [29]: 87%; residual activity [30]: 96%; residual activity [31]: 100%; residual activity [32]: 84%; residual activity [33]: 74%
